Data set [1] concerns the target T1, human dopamine D2L receptors (long isoform) (Homo sapiens, UniProt P14416).
T1 construct: expressed in transfected cells; host or cells: HEK-293
Nature of the data set: Dopamine D2L receptor binding ([125I]iodospiperone displacement). The note with it: selectivity ratio, human D2L vs human D3 binding. How it is done:
(§1) The substance to be tested was either dissolved in methanol/Chremophor® (BASF SE) or in dimethyl sulfoxide and then diluted with water to the desired concentration.
(§2) Each assay mixture was run in triplicate. • The incubation buffer contained 50 mM tris, 120 mM NaCl, 5 mM KCl, 2 mM CaCl2, 2 mM MgCl2 and 0.1% bovine serum albumin, 10 μM quinolone and 0.1% ascorbic acid (prepared fresh daily). […] Each assay mixture was run in triplicate. • The incubation buffer contained 50 mM tris, 120 mM NaCl, 5 mM KCl, 2 mM CaCl2, 2 mM MgCl2 and 0.1% bovine serum albumin. The buffer was adjusted to pH 7.4 with HCl. c) Measurement and analysis: • After having been incubated at 25° C. for 60 minutes, the assay mixtures were filtered through a Whatman GF/B glass fiber filter under vacuum using a cell col-lecting device. The filters were transferred to scintillation viols using a filter transfer system. After 4 ml of Ultima Gold® (Packard) have been added, the samples were shaken for one hour and the radioactivity was then counted in a Beta-Counter (Packard, Tricarb 2000 or 2200CA).

Data set [2] deals with T2, human dopamine D3 receptors (Homo sapiens, UniProt P35462).
T2 construct: expressed in transfected cells; host or cells: HEK-293
T2 sequence (P35462 whole entry): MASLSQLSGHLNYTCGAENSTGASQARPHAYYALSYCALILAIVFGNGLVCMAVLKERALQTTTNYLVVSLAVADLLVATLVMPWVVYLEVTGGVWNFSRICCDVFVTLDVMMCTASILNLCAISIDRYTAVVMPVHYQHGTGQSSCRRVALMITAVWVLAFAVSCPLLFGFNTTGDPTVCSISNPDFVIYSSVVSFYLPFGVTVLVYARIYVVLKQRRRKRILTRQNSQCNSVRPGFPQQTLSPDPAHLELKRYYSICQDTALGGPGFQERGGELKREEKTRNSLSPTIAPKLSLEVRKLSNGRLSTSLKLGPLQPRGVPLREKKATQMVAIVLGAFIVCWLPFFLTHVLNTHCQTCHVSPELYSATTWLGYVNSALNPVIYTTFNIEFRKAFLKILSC
Nature of the data set: Dopamine D3 receptor binding ([125I]-iodosulpride displacement). The note with it: membranes of HEK-293 cells with human D3 receptors, 0.1 nM [125I]-iodosulpride. The procedure: as §1, §2

A short description of data set [3]: Determination of the microsomal half-life / microsomal clearance. It is filed as in vitro ADME. Particulars: pH 7.4; human liver microsomes, 0.5 μM test substance, 0.25 mg protein/ml, NADPH, 37° C.; read-out: Human mCl (mikrosomal clearance). The procedure: The metabolic stability of the compounds of the invention was determined in the following assay.
The test substances were incubated in a concentration of 0.5 μM as follows:
0.5 μM test substance are preincubated together with liver microsomes from different species (from rat, human or other species) (0.25 mg of microsomal protein/ml) in 0.05 M potassium phosphate buffer of pH 7.4 in microtiter plates at 37° C. for 5 min. The reaction is started by adding NADPH (1 mg/mL). After 0, 5, 10, 15, 20 and 30 min, 50 μl aliquots are removed, and the reaction is immediately stopped and cooled with the same volume of acetonitrile. The samples are frozen until analyzed. The remaining concentration of undegraded test substance is determined by MSMS. The half-life (T1/2) is determined from the gradient of the signal of test substance/unit time plot, it being possible to calculate the half-life of the test substance, assuming first order kinetics, from the decrease in the concentration of the compound with time. The microsomal clearance (mC1) is calculated from mC1=1n2/T1/2/(content of microsomal protein in mg/ml)×1000 [ml/min/mg] (modified from references: Di, The Society for Biomoleculur Screening, 2003, 453-462; Obach, DMD, 1999 vol 27. N 11, 1350-1359).
In general terms: Liver microsomes are vesicles of endoplasmic reticulum, rich in cytochrome P450 enzymes.

Experimental findings from patent US9388148B2, “Acylaminocycloalkyl compounds suitable for treating disorders that respond to modulation of dopamine D3 receptor” (AbbVie Deutschland GmbH & Co. KG, priority 2013, dated 2016) are described below.

A word on the Ki: it is the equilibrium dissociation constant of an inhibitor or competing ligand from its target.

T1 sequence (P14416 whole entry, canonical isoform): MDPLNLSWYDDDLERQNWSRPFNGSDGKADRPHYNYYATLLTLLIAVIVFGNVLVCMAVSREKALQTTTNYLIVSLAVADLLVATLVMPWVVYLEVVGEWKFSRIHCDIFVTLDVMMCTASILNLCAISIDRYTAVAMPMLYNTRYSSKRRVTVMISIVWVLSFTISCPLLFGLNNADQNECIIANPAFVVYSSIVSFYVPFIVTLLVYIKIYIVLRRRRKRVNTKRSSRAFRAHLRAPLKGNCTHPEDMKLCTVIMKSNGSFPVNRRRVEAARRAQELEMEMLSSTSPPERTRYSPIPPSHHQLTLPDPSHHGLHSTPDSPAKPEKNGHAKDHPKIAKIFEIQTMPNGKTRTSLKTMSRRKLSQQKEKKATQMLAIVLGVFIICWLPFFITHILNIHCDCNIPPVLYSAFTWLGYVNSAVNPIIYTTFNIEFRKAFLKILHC

Take `CO[C@H]1C[C@H](C(=O)NC2CCC(CCN3CCN(c4cc(C(C)C)nc(C(C)(C)C)n4)CC3)CC2)C1` (relative stereo) [Compound 49, Trans-N-[4-[2-[4-(2-tert-butyl-6-isopropyl-pyrimidin-4-yl)-piperazin-1-yl]ethyl]cyclohexyl]-3-methoxy-cyclobutanecarboxamide]: the “D2/D3, Ki (D2L)/Ki (D3)” value in data set [1] is recorded as “+++ (+++ >50)”. Moreover, the inhibitory constant (Ki) in data set [2] was < 0.01 µM.

In the case of `CC(C)c1cc(N2CCN(CCC3CCC(NC(=O)[C@H]4C[C@H](O)C4)CC3)CC2)nc(C(C)(C)C)n1` (relative stereo) [Compound 50, Trans-N-[4-[2-[4-(2-tert-butyl-6-isopropyl-pyrimidin-4-yl)-piperazin-1-yl]ethyl]cyclohexyl]-3-hydroxy-cyclobutanecarboxamide], the “D2/D3, Ki (D2L)/Ki (D3)” value in data set [1] is “+++ (+++ >50)”. For the same compound, the inhibition constant (Ki) in data set [2] is < 0.01 µM.

In the case of `COCc1cc(N2CCN(CC[C@H]3CC[C@H](NC(=O)[C@H]4CC[C@H](O)CC4)CC3)CC2)nc(C(C)(C)C)n1` [Compound 37, trans-N-[trans-4-[2-[4-[2-tert-butyl-6-(methoxymethyl)pyrimidin-4-yl]piperazin-1-yl]ethyl]cyclohexyl]-4-hydroxy-cyclohexanecarboxamide], in data set [1], the “D2/D3, Ki (D2L)/Ki (D3)” value is on record as “+++ (+++ >50)”. Besides, in data set [3], the microsomal CLint at 0.5 μM was in the range of 20 to 120 µL/min/mg.

Consider `CC(C)(C)c1nc(C2CCC2)cc(N2CCN(CC[C@H]3CC[C@H](NC(=O)[C@H]4C[C@H](O)C4)CC3)CC2)n1.O=C(O)C(F)(F)F` [Compound 38, trans-N-[trans-4-[2-[4-(2-tert-butyl-6-cyclobutyl-pyrimidin-4-yl)piperazin-1-yl]ethyl]cyclohexyl]-3-hydroxy-cyclobutanecarboxamide; 2,2,2-trifluoroacetic acid], for which, in data set [1], the “D2/D3, Ki (D2L)/Ki (D3)” value is listed as “++ (++ >20)”. Also, in data set [3], the microsomal CLint at 0.5 μM is < 20 µL/min/mg.

For `CC(C)(C)c1nc(C2CCC2)cc(N2CCN(CC[C@H]3C[C@H](NC(=O)[C@H]4C[C@H](O)C4)C3)CC2)n1.O=C(O)C(F)(F)F` [Compound 39, trans-N-[trans-3-[2-[4-(2-tert-butyl-6-cyclobutyl-pyrimidin-4-yl)piperazin-1-yl]ethyl]cyclobutyl]-3-hydroxy-cyclobutanecarboxamide; 2,2,2-trifluoroacetic acid], the “D2/D3, Ki (D2L)/Ki (D3)” value in data set [1] is reported as “+++ (+++ >50)”. The microsomal CLint at 0.5 μM in data set [3] is < 20 µL/min/mg.

Consider `CC(C)c1cc(N2CCN(CC[C@H]3CC[C@H](NC(=O)[C@H]4CC[C@H](O)CC4)CC3)C[C@@H]2C)nc(C(C)(C)C)n1` [Compound 41, Trans-N-[4-[2-[(3S)-4-(2-tert-butyl-6-isopropyl-pyrimidin-4-yl)-3-methyl-piperazin-1-yl]ethyl]cyclohexyl]-trans-4-hydroxy-cyclohexanecarboxamide], for which the “D2/D3, Ki (D2L)/Ki (D3)” value in data set [1] was “+++ (+++ >50)”. Further, in data set [2], the inhibition constant (Ki) is < 0.01 µM.

With `CC(C)c1cc(N2CCN(CCC3CC(NC(=O)[C@H]4CC[C@H](O)CC4)C3)C[C@@H]2C)nc(C(C)(C)C)n1` (stereo partly drawn) [Compound 42, N-[3-[2-[(3S)-4-(2-tert-butyl-6-isopropyl-pyrimidin-4-yl)-3-methyl-piperazin-1-yl]ethyl]cyclobutyl]-trans-4-hydroxy-cyclohexanecarboxamide], the “D2/D3, Ki (D2L)/Ki (D3)” value in data set [1] is reported as “+++ (+++ >50)”. For the same compound, in data set [2], the Ki is < 0.01 µM.

Take `CC(C)c1cc(N2CCN(CC[C@H]3CC[C@@H](NC(=O)[C@H]4CC[C@H](O)CC4)CC3)CC2)nc(C(C)(C)C)n1` [Compound 43, Cis-N-[4-[2-[4-(2 tert-butyl-6-isopropyl-pyrimidin-4-yl)piperazin-1-yl]ethyl]cyclohexyl]-trans-4-hydroxy-cyclohexanecarboxamide]: the “D2/D3, Ki (D2L)/Ki (D3)” value in data set [1] is listed as “+++ (+++ >50)”. In data set [2], the inhibitory constant (Ki) is < 0.01 µM.

For `C[C@H]1CN(CC[C@H]2CC[C@@H](NC(=O)[C@H]3CC[C@H](O)CC3)CC2)CCN1c1cc(C(F)F)nc(C(C)(C)C)n1` [Compound 44, Cis-N-[4-[2-[(3S)-4-[2-tert-butyl-6-(difluoromethyl)pyrimidin-4-yl]-3-methyl-piperazin-1-yl]ethyl]cyclohexyl]-trans-4-hydroxy-cyclohexanecarboxamide], the “D2/D3, Ki (D2L)/Ki (D3)” value in data set [1] is “+++ (+++ >50)”. For the same compound, the Ki in data set [2] was < 0.01 µM.

Turning to `CC(C)c1cc(N2CCN(CCC3CC[C@H](NC(=O)[C@H]4CC[C@H](O)CC4)C3)C[C@@H]2C)nc(C(C)(C)C)n1` (stereo partly drawn) [Compound 45, Trans-N-[(1S)-3-[2-[(3S)-4-(2-tert-butyl-6-isopropyl-pyrimidin-4-yl)-3-methyl-piperazin-1-yl]ethyl]cyclopentyl]-4-hydroxy-cyclohexanecarboxamide], the “D2/D3, Ki (D2L)/Ki (D3)” value in data set [1] was “+++ (+++ >50)”. Besides, the Ki in data set [2] was < 0.01 µM.

`CC(C)c1cc(N2CCN(CCC3CCC(NC(=O)[C@H]4CC[C@H](O)CC4)CC3)C[C@@H]2C)nc(C(C)(C)C)n1` (stereo partly drawn) [Compound 46, Trans-N-[4-[2-[(3S)-4-(2-tert-butyl-6-isopropyl-pyrimidin-4-yl)-3-methyl-piperazin-1-yl]ethyl]cyclohexyl]-4-hydroxy-cyclohexanecarboxamide]: the “D2/D3, Ki (D2L)/Ki (D3)” value in data set [1] was “+++ (+++ >50)”. Moreover, the inhibition constant (Ki) in data set [2] was < 0.01 µM.

Turning to `CC(C)c1cc(N2CCN(CCC3CCC(NC(=O)[C@H]4C[C@H](O)C4)CC3)C[C@@H]2C)nc(C(C)(C)C)n1` (stereo partly drawn) [Compound 48, Trans-N-[4-[2-[(3S)-4-(2-tert-butyl-6-isopropyl-pyrimidin-4-yl)-3-methyl-piperazin-1-yl]ethyl]cyclohexyl]-3-hydroxycyclobutanecarboxamide], in data set [1], the “D2/D3, Ki (D2L)/Ki (D3)” value was “+++ (+++ >50)”. In data set [2], the Ki was < 0.01 µM.
